For assay [1], the system named is G93A mutant SOD1 mouse-derived fibroblasts. Kind of assay: Real-time qRT-PCR analysis of ALS animal model-derived fibroblasts. The class given is cell-based. To be noted: low or high concentration halofuginone for 24 hours; elevation vs Non-TG fibroblasts (FIG. 5a). The text has this:
Specifically, primary fibroblasts were isolated from skeletal muscle of 120-day-old non-transformed or G93A mutant SOD1 transgenic mice of Example 4. The excised tissue was placed on 100-mm culture dishes containing HBSS (Hanks' Balanced Salt Solution; Gibco, cat #14175095) and penicillin-streptomycin (Cat #15070-063, Thermo Fisher Scientific) without calcium and magnesium. Muscle tissue was cut on ice blocks. Then, the tissue was cut into 1 mm pieces and enzymatically reacted with 0.2% IV type collagenase (Sigma) at 37° C. for 1 hour. The enzymatic reaction was stopped by the addition of 10 ml of FBS (Gibco). […]
Specifically, total RNA was isolated from C2C12 cells in Example 1, fibroblasts in Example 5, and the lumbar spinal cord of mice in Example 6 using the FavorPrep™ Tri-RNA Reagent (Favorgen). […] The concentration of total RNA was measured at 260 nm absorbance using a spectrophotometer (NanoDrop Spectrophotometer ND-2000, Thermo Scientific). cDNA was synthesized from 1 μg of total RNA using the ReverTra Ace-α™ (Toyobo) according to the manufacturers protocol. Quantitative RT-PCR was performed using the SYBR Green ExcelTaq™ 2× Fast Q-PCR Master Mix (TQ1200, Smobio) on a thermocycler (CFX Connect Real-Time PCR Detection System, BIO-RAD) with the primers listed in Table 3 below. […]

Assay [2] has as its system G93A mutant SOD1 transgenic mice. Briefly: Western blot analysis of knee joint tissue in ALS animal model. The class given is in vivo, mouse. To be noted: 120 days old; compared to DMSO non-TG mice. The procedure: As a control group, non-transgenic mice were injected intraperitoneally (i.p.) with vehicle (DMSO) in the same manner for the same period of time.
Specifically, the lumbar spinal cord or knee joint of the mouse of Example 6 was separated and immediately frozen at −80° C. Each lumbar spinal cord or knee joint was then homogenized and chemically treated to obtain cells. The chemically treated cells, the C2C12 cells of Example 1 or the fibroblasts of Example 5 were dissolved in a RIPA buffer (Thermo, MA, USA) with a protease inhibitor and a phosphatase inhibitor (Roche, IN, USA) and incubated on ice for 30 minutes. After centrifugation of the lysate at 13,000 rpm at 4° C. for 20 min, insoluble substances were removed. Protein concentrations were measured by BCA analysis (Pierce Biotechnology). Equal volumes of cell lysate were loaded onto SDS-PAGE gels for electrophoresis, and transferred onto nitrocellulose membranes (Amersham Protran 0.2 um NC, Amersham Pharmacia Biotech, Piscataway, NJ, USA). The membranes were then blocked with 5% (w/v) skimmilk in 1×TBST for 1 h at room temperature. After blocking, anti-RB-actin antibody (1:5000; Santa Cruz, cat #sc47778), anti-Smad2 antibody (1:1000; Cell Signaling, cat #5339), anti-p-Smad2 antibody (1:1000; Cell Signaling, cat #3108), anti-TGF-β1 antibody (1:1000; Santa Cruz, cat #sc130348), anti-α-SMA antibody (1:10000; abcam cat #ab7817), anti-MyoD antibody (1:1000; cat #sc377460), anti-collagen|antibody (1:1000; abcam cat #ab21286), anti-cleaved caspase-3 antibody (1:1000; Cell Signaling, cat #9661), anti-bax antibody (1:500; Santa Cruz, cat #sc493), anti-bcl2 antibody (1:1000; Novus Biologics, cat #NB100-56098), anti-ChAT antibody (1:1000; Millipore, cat #AB144) were treated and incubated overnight at 4° C. Subsequently, membranes were washed several times with 1×TBST and incubated with horseradish peroxidase-conjugated secondary antibodies (anti-mouse, rabbit or goat, 1:5000; GE Healthcare) in blocking buffer for 1 h at room temperature (RT). The membranes were then washed, briefly incubated with the SuperSignal West Pico Plus Chemical Substructure (Pierce Biotechnology) according to the manufacturer's procedure, and quantified with an image analyzer (Amersham Pharmacia Biotech, Piscataway, NJ, USA). β-actin was used as an internal control group. The concentration measurement of protein intensity was quantified using Image J (National Institutes of Health).
Specifically, halofuginone was administered to G93A mutant SOD1 mice in the same manner as described in Example 6, and ROM measurement of the knee joint was performed in the same manner as described in Example 10 (FIG. 8a). In addition, Western blot analysis was performed in the same manner as the method described in Example 12 using knee joint tissue to confirm p-Smad2, Smad2, TGF-β1, α-SMA, MyoD, and collagen I protein expression (FIG. 8b).

As to `O=C(C[C@H]1NCCC[C@@H]1O)Cn1cnc2cc(Br)c(Cl)cc2c1=O` (racemic) [halofuginone], the “elevated mRNA level of TGF-β, α-SMA and Col-I” value in assay [1] is reported as “attenuated”. In assay [2], the “Col-1 expression level in knee joint tissue” value is “rather reduced”, the “MyoD expression level in knee joint tissue” value is “preserved similarly”, the “TGF-β1 expression level in knee joint tissue” value is “preserved similarly” and the “p-Smad2/Smad2 ratio in knee joint tissue” value is reported as “preserved similarly”. The “α-SMA expression level in knee joint tissue” value in assay [2] is recorded as “preserved similarly”.
